# Results: the supplement of paper PMC10307832
# Key:
# Experiment in all cases: relative viability (nuclei count vs DMSO), 5 days (fraction); higher = more cells survive
# [1] = compound: C(C(=O)C(=O)O)Br [Bromopyruvate] + CC(C)C[C@H](NC(=O)[C@H](Cc1ccccc1)NC(=O)c1cnccn1)B(O)O [Bortezomib] (partner 0.002 µM)
# How it was run: (§1)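 The day after seeding in 1536-well plates, lung cancer cell lines were treated by pin tool with a single drug, or with a fixed anchor-drug dose together with five library-drug doses (not always all listed) in √10 steps. After 5 days, a combined fix-and-stain solution (final 0.05% Triton X-100, 1% formaldehyde, 1 ug/ml Hoechst) was added. Nuclei counted on 4× images gave relative viability as treated counts over vehicle counts, reported as the median of duplicate plates.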
# [2] = compound: C(C(=O)C(=O)O)Br [Bromopyruvate] + O=C(CCCCCCC(=O)Nc1ccccc1)NO [Vorinostat] (partner 1 µM)
# How it was run: as §1
# [3] = compound: CC(O)(CS(=O)(=O)c1ccc(F)cc1)C(=O)Nc1ccc(C#N)c(C(F)(F)F)c1 [Bicalutamide] + N=C(N)NC(=N)NCCc1ccccc1 [Phenformin] (partner 250 µM)
# How it was run: as §1
# Bicalutamide + AZD7762 = compound: CC(O)(CS(=O)(=O)c1ccc(F)cc1)C(=O)Nc1ccc(C#N)c(C(F)(F)F)c1 [Bicalutamide] + NC(=O)Nc1cc(-c2cccc(F)c2)sc1C(=O)N[C@H]1CCCNC1 [AZD7762] (partner 0.2 µM)
# How it was run: as §1
Cell Line,relative viability ([1]; first compound 1 µM),relative viability ([1]; first compound 3.162 µM),relative viability ([1]; first compound 10 µM),relative viability ([1]; first compound 31.62 µM),relative viability ([1]; first compound 100 µM),relative viability ([2]; first compound 1 µM),relative viability ([2]; first compound 3.162 µM),relative viability ([2]; first compound 10 µM),relative viability ([2]; first compound 31.62 µM),relative viability ([2]; first compound 100 µM),relative viability ([3]; first compound 0.08 µM),relative viability ([3]; first compound 0.253 µM),relative viability ([3]; first compound 0.8 µM),relative viability ([3]; first compound 2.53 µM),relative viability (Bicalutamide + AZD7762; first compound 0.08 µM),relative viability (Bicalutamide + AZD7762; first compound 0.253 µM),relative viability (Bicalutamide + AZD7762; first compound 0.8 µM),relative viability (Bicalutamide + AZD7762; first compound 2.53 µM)
HCC-15,0.98,1.03,1.03,0.99,0.973,0.792,0.838,0.782,0.818,0.686,0.513,0.418,0.6,0.484,1.07,1.05,1.2,1.09
EKVX,1.08,0.993,1.12,1.11,1.1,0.668,0.685,0.718,0.729,0.713,0.246,0.223,0.233,0.24,0.693,0.613,0.797,0.664
NCI-H2126,1.1,1.05,1.12,1.14,1.15,0.82,0.832,0.886,0.829,0.639,0.519,0.528,0.55,0.49,0.994,0.918,1.01,0.856
NCI-H1437,0.546,0.458,0.485,0.405,0.626,0.918,0.672,0.74,0.694,0.529,0.341,0.264,0.422,0.309,1.17,1.13,1.15,1.19
ABC-1,0.342,0.31,,0.347,0.332,1.27,,,,0.612,0.26,0.229,0.253,0.212,0.828,0.572,1.02,0.772
PC-14,0.958,0.873,0.883,1,0.912,0.755,0.706,0.587,0.516,0.482,0.701,0.541,0.96,0.527,0.314,0.329,0.443,0.353
A-427,0.999,1.02,0.931,1.05,1.06,0.87,0.899,0.841,0.767,0.835,0.382,0.283,0.367,0.224,0.807,0.677,0.855,0.583
LCLC-97TM1,0.957,0.625,0.735,0.573,0.586,0.666,0.671,0.887,0.601,0.655,0.442,0.426,0.463,0.443,0.388,0.186,0.225,0.232
LCLC-103H,1.05,0.998,1.06,1.08,1.16,0.762,0.757,0.818,0.821,0.691,0.305,0.326,0.379,0.355,0.829,0.791,0.8,0.814
RERF-LC-KJ,1.09,1.14,1,1.18,1.29,0.707,0.655,0.673,0.626,0.516,0.406,0.396,0.431,0.336,0.982,0.847,1.47,0.867
BEN,0.897,0.724,0.78,0.836,0.682,0.588,0.581,0.485,0.608,0.411,0.257,0.262,0.28,0.279,0.742,0.563,0.874,0.675
NCI-H1666,0.804,0.847,0.638,0.89,0.819,1.01,0.978,1.08,0.931,0.858,0.613,0.541,0.569,0.537,0.928,0.759,0.873,0.801
LC-2-ad,0.924,0.934,1.07,0.977,0.988,0.706,0.631,0.72,0.645,0.575,0.607,0.529,0.654,0.56,0.852,0.838,0.915,0.883
ChaGo-K-1,1.08,1.02,1.01,1.07,0.953,0.818,0.755,0.879,0.703,0.67,0.449,0.388,0.509,0.48,0.883,0.792,0.944,0.858
NCI-H1975,0.423,0.431,0.475,0.405,0.5,0.741,0.761,0.687,0.675,0.582,0.4,0.409,0.442,0.37,0.769,0.783,0.722,0.667
NCI-H2347,0.862,1.19,0.893,0.723,1.08,0.645,0.541,0.542,0.495,0.473,0.368,0.462,0.421,0.268,0.797,0.753,0.753,0.73
HCC-366,1.04,1.06,1.38,1.09,1.18,0.375,0.368,0.408,0.307,0.227,0.568,0.615,0.699,0.64,0.392,0.229,0.332,0.281
EMC-BAC-2,0.99,1.14,1.2,1.02,1.12,0.719,0.336,0.277,,0.389,0.541,0.554,0.609,0.46,1.05,1,1.09,0.735

Cell Line,relative viability ([1]; first compound 1 µM),relative viability ([1]; first compound 3.162 µM),relative viability ([1]; first compound 10 µM),relative viability ([1]; first compound 31.62 µM),relative viability ([1]; first compound 100 µM),relative viability ([2]; first compound 1 µM),relative viability ([2]; first compound 3.162 µM),relative viability ([2]; first compound 10 µM),relative viability ([2]; first compound 31.62 µM),relative viability ([2]; first compound 100 µM),relative viability ([3]; first compound 0.08 µM),relative viability ([3]; first compound 0.253 µM),relative viability ([3]; first compound 0.8 µM),relative viability ([3]; first compound 2.53 µM),relative viability (Bicalutamide + AZD7762; first compound 0.08 µM),relative viability (Bicalutamide + AZD7762; first compound 0.253 µM),relative viability (Bicalutamide + AZD7762; first compound 0.8 µM),relative viability (Bicalutamide + AZD7762; first compound 2.53 µM)
NCI-H3122,1.02,1.01,1.07,0.971,1.02,1.05,0.991,1.11,0.829,0.718,0.46,0.416,0.378,0.369,0.98,1,1.05,1.01
EPLC-272H,0.844,0.952,1.03,0.862,1.08,0.36,0.38,0.359,0.44,0.347,0.34,0.274,0.311,0.315,0.155,0.297,0.215,0.239
NCI-H1915,1,1.02,1.01,0.929,0.975,0.5,0.495,0.529,0.462,0.423,0.375,0.313,0.368,0.362,0.721,0.616,0.712,0.682
NCI-H647,0.93,1.01,1,1.18,0.961,0.559,0.724,0.399,0.51,0.334,0.646,0.596,0.758,0.385,0.512,0.397,0.549,0.321
NCI-H441,0.37,0.549,0.481,0.548,0.459,0.828,0.856,0.761,0.623,0.607,0.849,0.745,1.09,0.683,1.06,1.08,1.13,1.16
NCI-H23,1.03,0.991,1.25,0.941,0.839,0.569,0.639,0.64,0.538,0.39,0.851,0.694,0.883,0.765,0.315,0.236,0.27,0.2
NCI-H650,0.946,0.819,0.856,0.897,0.973,0.438,0.487,0.411,0.441,0.392,0.52,0.433,0.466,0.395,0.847,1.09,1.21,0.886
NCI-H2087,0.878,0.772,0.772,0.793,0.9,0.814,0.551,0.751,0.528,0.375,0.539,0.449,0.642,0.435,1.29,1.29,1.58,1.26
NCI-H838,0.915,0.886,0.773,0.786,0.763,0.7,0.684,0.652,0.631,0.607,0.588,0.573,0.748,0.337,0.965,0.958,1.02,0.909
NCI-H460,1.06,1.14,1.34,0.978,1.07,0.74,0.71,0.599,0.524,0.565,0.559,0.524,0.834,0.52,0.816,0.659,0.76,0.735
LOU-NH91,0.499,0.499,0.518,0.49,0.472,1.07,0.961,0.912,1,1,0.745,0.493,0.814,0.821,0.725,0.653,0.793,0.751
NCI-H322M,1.2,1.25,1.12,1.18,1.26,1.04,0.844,0.739,0.8,0.88,0.821,0.789,0.904,0.859,0.581,0.521,0.579,0.572
NCI-H727,1.01,0.984,0.939,0.729,1.01,1.28,1.26,1.24,0.886,1.23,0.618,,0.734,0.821,0.794,0.563,0.54,0.576
NCI-H1734,0.984,0.89,1.11,0.97,1.09,0.762,0.86,0.858,0.736,0.724,0.41,0.338,0.458,0.416,0.568,0.439,0.645,0.571
LXF-289,1.04,0.966,0.975,1.03,1,0.777,0.796,0.714,0.81,0.677,0.596,0.481,0.55,0.519,1.17,1.05,1.11,1.1
H3255,0.877,0.723,0.981,0.719,0.892,0.941,0.781,0.771,0.763,0.85,0.42,0.337,,0.352,0.949,0.791,1.11,0.823
201T,1.11,1.08,1.11,1.1,1.03,0.967,1.01,0.984,0.912,0.971,0.503,0.414,0.481,0.416,0.637,0.408,0.586,0.599
HOP-62,0.739,0.832,,0.547,0.628,0.716,0.579,0.569,0.534,0.428,0.681,0.651,0.769,0.698,0.567,0.494,0.848,0.432
